The numbers were not newly measured in paper PMC3159817 (Journal of chemical information and modeling, 2011), which cites them from elsewhere.

In data set [1] the test system is RNase H active site of RT with DNA:RNA substrate bound.
In data set [2] the test system is HIV-1 reverse transcriptase Y501 mutants.

With `CC(C)c1ccc(O)c(=O)c(O)c1` [β-thujaplicinol], in data set [1], the “competition with nucleic acid substrate” value is given as “appears unable to compete with the intact nucleic acid substrates”. On to `CC(C)(C)c1ccc(C(=O)NN=Cc2c(O)ccc3ccccc23)cc1` [BBNH, N-(4-tert-butylbenzoyl)-2-hydroxy-1-naphthaldehyde hydrazone], for which, in data set [2], the “effect of Y501 mutations on inhibition” value was “mutations of Y501 result in resistance to inhibition”.
